The numbers were not newly measured in US20180221332A1, “Flash-Melt Cannabinoid Formulations” (CannTab Therapeutics Limited, priority 2017, published 2018), which cites them from elsewhere.

A value given as a limit tells only on which side of the number the result lay.

The conditions of data set [1]: NICHD/FDA Oral Formulations Platform Report 1; low solubility, unknown permeability.
For data set [2] the following is noted: after administration.

As to `CCCCCc1cc(O)c2c(c1)OC(C)(C)[C@@H]1CCC(C)=C[C@@H]21` [Dronabinol, (−)-trans-Δ^9-tetrahydrocannabinol], the biopharmaceutics class result in data set [1] is listed as “class 2 or class 4”. Further, in data set [2], the “duration of appetite stimulant effect” value was no less than 24 h.
